Measurements: US20150031045A1, “MARKERS FOR DIAGNOSING AMYOTROPHIC LATERAL SCLEROSIS” (University Of Maryland, priority 2012, published 2015)
Entries after “also recorded” stand apart in the source; their conditions may differ.

Assays:
[1] = Body weight of G93A*SOD1 ALS mice treated with 6-gingerol; assay type: in vivo
Method: (§1) The study used 12 mice. At 35 d, mice were assigned to treatment groups. The 3 groups in the study were: i) wild-type control mice treated with vehicle (CON-Veh; n=4; 3 female (F) and 1 male (M)); ii) G93A*SOD1 ALS mice treated with vehicle (ALS-Veh; n=4; 3 F and 1 M; and iii) G93A*SOD1 mice treated with 6-Gingerol (ALS-Gin; n=4; 3 F and 1 M). There were no 6-gingerol treated control mice due to cost of the drug.
(§2) 6-gingerol was purchased from Carbosynth Limited, UK. Mice were dosed daily with intraperitoneal (ip) injection of vehicle (0.4% ethanol in PBS) or 6-gingerol at a dose of 10 mg/kg. Treatment began when mice were 35 d old and terminated at 115 d. The volume dosed was adjusted weekly according to changes in body weight.
In this study, mice were evaluated at an average age of 115±5 d (for CON-Veh, ALS-Veh and ALS-Gin), just prior to severe symptom onset. […] There was also a significant reduction in muscle mass in ALS vs. CON mice and a 21% improvement in muscle mass with 6-gingerol (CON-Veh: 0.111±0.015 g; ALS-Veh: 0.075±0.010 g; ALS-Gin 0.090±0.007 g) (FIG. 22, left panel, and Table 4).

[2] = test system: SERCA1; assay: SERCA1 protein level in gastrocnemius muscle by western blot; assay type: in vivo, mice; conditions: 10 mg/kg ip daily; levels nearing those in CON muscle; p<0.05 vs. ALS-Veh
From the text: (§3) The superficial (SP) and deep (DP) portions of the gastrocnemius muscle (SP GAS and DP GAS, respectively) were used for analysis of Ca^2+ regulatory protein levels by western blot. Anatomically, the gastrocnemius muscle is composed of a lateral and medial head, with a similar mixture of fibres types in the two heads: lateral gastrocnemius is 69% fast glycolytic (FG), 30% fast oxidative and glycolytic (FOG) and 1% slow oxidative (SO) fibres and medial gastrocnemius is 55% FG, 32% FOG and 8% SO. The muscle was divided by superficial vs. deep portions due to their glycolytic (white) vs. oxidative (red) differences, respectively. […] Protein levels were determined using a BCA protein kit (Thermo Scientific). […] For assessment of changes in sarcoplasmic reticulum (SR)/endoplasmic reticulum (ER) Ca^2+ (SERCA) pump, SERCA1 and SERCA2 protein levels were measured. Specifically, 15 μg protein was loaded on 8% gels and analyzed by polyacrylamide gel electrophoresis (PAGE). Levels of parvalbumin (PV) were assessed by loading 2.5 μg protein on 15% gels. […] Level of each respective protein was quantified by chemiluminescence using SuperSignal West Dura Chemiluminescent Substrate (Thermo Scientific) and imaged using a chemiluminescence imaging system (GeneGnome, Syngene). Protein expression levels are expressed as Arbitrary Units (AU). […]

[3] = test system: G93A*SOD1 ALS mice; assay: Stride length test; assay type: in vivo; conditions: 10 mg/kg ip daily; p=0.13
Method: as §1, §2
Briefly, fore- and hind-limb paws are dipped in non-toxic paint and mice walk across a 120 cm table covered in white paper. A dark box with food is placed at the far end to encourage walking across the table. The distance between the fore- and hind-limb ink marks are then measured. Four strides per mouse are quantified and the average stride length determined

[4] = test system: G93A*SOD1 ALS mice; assay: Grip function test; assay type: in vivo; conditions: 10 mg/kg ip daily
Method: as §1, §2
Briefly, mice are placed on a metal grid (20 cm wide, 40 cm long; grid placed 40 cm above table) and allowed to grip with fore- and hind-limb paws prior to inverting the grid. Timing begins once the grid is inverted and stops once the mouse can no longer hold the lid.

[5] = test system: IRE1α; assay: IRE1α protein level in gastrocnemius muscle by western blot; assay type: in vivo, mice; conditions: n=5
Method: (§4) As described above in Examples 15-18, ALS mice administered 6-gingerol had improved muscle function, improved intracellular calcium clearance, increased SERCA1 protein levels, and decreased CHOP protein levels. To further examine the response of skeletal muscle to 6-gingerol treatment, the levels of ER stress proteins PERK, GRP78/BiP, PDI, and IRE1α were measured in the gastrocnemius muscle of control (CON) and G93A*SOD1 (ALS) mice treated with vehicle (Veh) or 6-gingerol (Gin). Specifically, the protein levels were measured by western blotting. Each group had five mice, i.e., CON (n=5), ALS-Veh (n=5), and ALS-Gin (n=5).

[6] = test system: SR Ca^2+ ATPase (SERCA); assay: Maximum Ca2+ ATPase activity in skeletal muscle homogenates; assay type: in vivo, mice; conditions: 10 mg/kg 6-gingerol for 10 weeks, p<0.05 vs. ALS-Veh
Method: To further examine the effects of 6-gingerol treatment, maximum Ca^2+ ATPase activity was measured in control (CON) and G93A*SOD1 (ALS) mice treated with vehicle (Veh) or 6-gingerol (Gingerol). Specifically, ALS mice received 10 mg/kg 6-gingerol for 10 weeks. The vehicle was administered in parallel to the CON-Veh and ALS-Veh groups of mice.
SR Ca^2+ ATPase (SERCA) activity in skeletal muscle homogenates obtained from the mice was then measured and the average data for all groups is shown in FIG. 31, in which CON (n=5), ALS-Veh (n=5), and ALS-Gin (n=5). In FIG. 31, *=p<0.05 vs. CON-Veh and #=p<0.05 vs. ALS-Veh.

[7] = test system: PDI; assay: PDI protein level in gastrocnemius muscle by western blot; assay type: in vivo, mice; conditions: n=5
Method: as §4

[8] = test system: GRP78/BiP; assay: GRP78/BiP protein level in gastrocnemius muscle by western blot; assay type: in vivo, mice; conditions: n=5
Method: as §4

[9] = test system: CHOP; assay: CHOP protein level in gastrocnemius muscle by western blot; assay type: in vivo, mice; conditions: 10 mg/kg ip daily; p<0.05 vs. ALS-Veh
Method: Total protein was determined using a BCA protein assay kit (Thermo Scientific). Samples were then solubilized in loading buffer and denatured (5 min at 100° C.). For assessment of changes in protein expression levels, 15-30 μg total protein were loaded on bis-acrylamide gels and analyzed by polyacrylamide gel electrophoresis (PAGE). The amount of protein loaded for each endpoint was determined by separate analysis of the linear range for each antibody. Samples were then transferred to PVDF membrane (Millipore) and blocked with 5% (w/v) non-fat dry milk powder in Tris-buffered saline (pH 8.0) for 1 hr. […] Secondary antibodies were detected using HRP-linked chemiluminescence with SuperSignal West Dura Chemiluminescence Substrate (Thermo Scientific) and imaged using a chemiluminescence imaging system (GeneGnome, Syngene). The signal for the target protein of each sample was quantified and expressed in arbitrary unit (AU) and then values for each ALS and CON mouse expressed as a ratio relative to the first CON mouse (CON1) at each age. […]
The response of skeletal muscle to the ER stress markers was also assessed in response to gingerol treatment, namely by examining the levels of the apoptotic factor CHOP.

[10] = test system: SERCA2; assay: SERCA2 protein level in skeletal muscle by western blot; assay type: in vivo, mice; conditions: 10 mg/kg ip daily
From the text: as §3

[11] = test system: PERK; assay: PERK protein level in gastrocnemius muscle by western blot; assay type: in vivo, mice; conditions: n=5
Method: as §4

[12] = test system: single muscle fibres from the flexor digitorum brevis (FDB) muscle; assay: Intracellular Ca2+ handling (Fura-2) in single muscle fibres from treated mice; assay type: in vivo
Method: For e-c coupling measurements, fibres were loaded with 1 μM Fura-2 AM in MEM/FBS media for 15 min at room temperature. Fura-2 AM media was then removed by quick centrifugation and fibres were resuspended in fresh MEM/FBS media. Fibres loaded with Fura-2 were placed in a culture/stimulation chamber (Cell MicroControls) containing parallel electrodes on top of a Nikon TiU microscope. Once in the chamber, fibres were continuously perfused with stimulating tyrode (121 mM NaCl, 5 mM KCl, 1.8 mM CaCl2, 0.5 mM MgCl2, 0.4 mM NaH2PO4, 24 mM NaHCO3, and 5.5 mM glucose) pH 7.3 when continuously bubbled with 95% O2/5% CO2 using a Gilson Minipuls 3 peristaltic pump and vacuum pump. Intracellular Ca^2+ levels were assessed by Fura-2 fluorescence ratio (ratio of excitation at 340 and 380 nm; emission at 510 nm) using the IonOptix Hyperswitch system, with the Hyperswitch enabling collection of ratiometric data at a frequency of 250 Hz. Ratios were converted to intracellular free Ca^2+ concentration ([Ca^2+]i). The Fura-2 ratio was calibrated in vivo using the Ca^2+ ionophore A23187 and 10 mM EGTA or 1 mM CaCl2, with Rmin and Rmax determined to be 0.33 and 3.50, respectively. The Kd for Ca^2+ for Fura-2 was 224 nM.
Fura-2 loaded single fibres were stimulated using 350 ms tetani, 0.5 ms pulse duration at 10, 30, 50, 70 and 100, 120 and 150 Hz stimulation frequencies (S48 Square Pulse Stimulator, GRASS Technologies) with one minute rest between frequencies. All single fibre data was collected at room temperature (23 degrees Celsius). […]
After conclusion of the grip function and stride function tests, mice were then sacrificed and single muscle fibres were obtained immediately from the flexor digitorum brevis (FDB) muscle and intracellular Ca^2+ handling assessed using Fura-2 as discussed above in Example 1. Changes in Fura-2 ratio, representing changes in [Ca^2+]i, were measured under resting conditions and in response to electrical stimulation at a range of physiological frequencies (10-150 Hz). […]

[13] = test system: G93A*SOD1 ALS mice; assay: Gastrocnemius muscle mass and muscle mass index; assay type: in vivo
Method: as §1, §2
Specifically, muscle function was assessed using a grip test and a walking or stride test at the termination of the study. After conclusion of the grip function and stride function tests, the mice were then sacrificed and skeletal muscle tissues weighed to determine muscle mass.

CCCCC[C@H](O)CC(=O)CCc1ccc(O)c(OC)c1 [6-gingerol]
Effect of 6-gingerol on body weight ([1]; ALS-Gin vs. ALS-Veh, 10 mg/kg ip daily, 10 mg/kg): no significant improvement | Body weight ([1]; ALS-Gin: G93A*SOD1 mice, 10 mg/kg ip daily from 35 d, evaluated at 115±5 d, CON-Veh 21.0±2.7, ALS-Veh 17.8±1.4): 18.2 ± 0.7 g | SERCA1 protein level in gastrocnemius muscle, ALS-Gin compared to ALS-Veh [2]: dramatic increase | Stride length, difference ALS-Gin vs. ALS-Veh [3]: tendency to improve; also recorded: did not reach statistical significance | Grip test time, difference ALS-Gin vs. ALS-Veh ([4]; p<0.10): did not reach significance | Grip function, % of CON-Veh level ([4]; ALS-Gin, ALS-Veh 17% of CON-Veh, p=0.08): 42% | IRE1α protein level, ALS-Gin compared to ALS-Veh [5]: decreased | Ca^2+ ATPase maximum activity (SERCA activity), ALS-Gin relative to ALS-Veh [6]: increased; also recorded: restored Ca^2+ ATPase maximum activity | PDI protein level, ALS-Gin compared to ALS-Veh [7]: decreased | GRP78/BiP protein level, ALS-Gin compared to ALS-Veh [8]: decreased | CHOP protein level in skeletal muscle, ALS-Gin vs. ALS-Veh [9]: significantly attenuated | SERCA2 protein level, rescue of the decrease with 6-gingerol treatment [10]: minimal rescue | PERK protein level, ALS-Gin compared to ALS-Veh [11]: decreased | Effect of 6-gingerol on peak Fura-2 ratio (10 Hz) ([12]; ALS-Gin vs. ALS-Veh): no attenuation; also recorded: no improvement | Ca^2+ decay time, ALS-Gin vs. ALS-Veh ([12]; single FDB fibres, after 50 and 100 Hz tetani, p<0.11): tendency for improvement; also recorded: trend for single fibres from ALS-Gin to have a faster decay time | Resting Fura-2 ratio, ALS-Gin vs. ALS-Veh ([12]; single FDB fibres, p=0.13): lower but did not reach statistical significance; also recorded: tendency for Fura-2 ratio to be lower | Muscle mass index (mg muscle per g body weight), reduction in ALS ([13]; ALS-Gin vs. ALS-Veh): attenuated | Improvement in muscle mass with 6-gingerol ([13]; ALS-Gin vs. ALS-Veh, 10 mg/kg ip daily): 21% | Gastrocnemius muscle mass ([13]; ALS-Gin, 10 mg/kg ip daily 35-115 d, CON-Veh 0.111±0.015, ALS-Veh 0.075±0.010): 0.090 ± 0.007 g
